# Reference: patent publication US6924100B2, “Gene alteration in the gene for the Gβ3-subunit of the human G protein” (priority 1998, dated 2005)
# Experiments:
# [1] = system: beta-adrenergic receptors; experiment: Cardiac output after intravenous beta-adrenoceptor blocker; type: in vivo, human; conditions: average
# [2] = system: males with penile dysfunction; experiment: Erection score and arterial blood flow after prostaglandin E1 injection into the corpus cavernosum; type: in vivo, human; conditions: for males with insufficient or absent erection / males with sufficient erection (scores 4 and 5): 10 micrograms, of 87 males
# Procedure: When erectile dysfunction is present, prostaglandin E1 is injected into the corpus cavemosum for diagnostic clarification, but also possibly to begin long-term therapy. Prostaglandin E1 activates adenylcyclase, and the subsequent formation of cAMP relaxes smooth vascular muscle cells and thus induces an increased arterial blood flow and thus erection of the penis. The degree of the erection which occurs can be quantified via a point system (score 0-5). Here the scores 4 and 5 correspond to an erection which is sufficient for penetration, while scores<4 can be considered as insufficient.
# In 87 males with penile dysfunction, 10 micrograms of prostaglandin E1 were administered with quantification of the erection score. Here the genotype distribution was as follows: Sufficient erection (scores 4 and 5): TT=3; TC=15; CC=16; (frequency of GNB3 825T allele: 30.9%). Insufficient or absent erection: TT=3; TC=16; CC=34; (frequency of the GNB3 825T allele: 20.8%).
# [3] = system: neutrophilic granulocytes; experiment: fMLP-stimulated chemotaxis of neutrophilic granulocytes; type: cell-based, human; conditions: granulocytes of carriers of the GNB3-825T allele, FIG. 5
# Source text: It is therefore used as a test system for measurement of chemotactic reactions of cells which is well known to one skilled in the art. The fMLP receptor, as is known, activates the pertussis toxin-sensitive G proteins. The statement that granulocytes of carriers of the GNB3-825T allele show intensified fMLP-stimulated chemotaxis is in agreement with the fact that chemotaxis of betagamma subunits is mediated.
# [4] = biological target: T1, m2-muscarinergic receptor (Homo sapiens, UniProt P08172); experiment: G protein stimulation by carbachol in Sf9 cells expressing m2-muscarinergic receptor, Galphai3, Ggamma5 and Gβ3 or Gβ3s; type: cell-based; conditions: in the presence of Gβ3 (so in the source), FIG. 2
# T1 sequence (P08172 1-466): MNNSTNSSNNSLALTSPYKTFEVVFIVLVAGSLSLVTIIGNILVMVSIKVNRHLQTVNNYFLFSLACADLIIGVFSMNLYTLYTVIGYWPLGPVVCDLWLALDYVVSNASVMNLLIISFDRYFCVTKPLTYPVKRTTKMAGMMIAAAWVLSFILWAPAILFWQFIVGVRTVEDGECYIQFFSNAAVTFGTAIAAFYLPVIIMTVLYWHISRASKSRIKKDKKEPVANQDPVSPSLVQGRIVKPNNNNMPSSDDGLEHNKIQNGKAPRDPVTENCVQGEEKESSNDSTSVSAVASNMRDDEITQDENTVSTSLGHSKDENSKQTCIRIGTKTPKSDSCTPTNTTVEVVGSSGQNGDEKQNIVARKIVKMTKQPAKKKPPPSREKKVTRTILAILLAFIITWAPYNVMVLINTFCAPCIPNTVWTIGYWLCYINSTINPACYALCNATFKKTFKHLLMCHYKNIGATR
# Source text: Here the m2-muscarinergic receptor is expressed together with the G protein subunits Galphai3 and Ggamma5 and either Gβ3 or Gbeta3-s in the Sf9 system.
# coronary vessels = experiment: Coronary blood flow change after intracoronary BHT 933; type: in vivo, human; conditions: carriers of the GNB3-825T allele, with or without CHD, FIG. 8
# Source text: An alpha2 adrenergic agonist (BHT 933) was applied intracoronary in the probands; it leads to contraction of coronary vessels. This effect was quantified via the flow change through these sections of the vessels. […] This means that in carriers of the GNB3-825T allele the intensification of the action of these pharmaceuticals can be predicted.
# [5] = system: phospholipase Cβ3 (PLCbeta3); experiment: Inositol phosphate formation in COS-7 cells transfected with PLCβ3, Ggamma12 and Gβ subunits; type: cell-based; conditions: betagamma dimers with Ggamma12, FIG. 16
# Source text: It is generally known that betagamma subunits of heterotrimeric G proteins can stimulate different isoforms of the phospholipase Cbeta. This enzyme splits phospholipids, for example phosphatdylinositol-4,5-bisphosphate into the “second messenger” molecules inositol-1,4,5 triphosphate (IP3) and 1,2-diacylglycerol (DAG), IP3 causes release of calcium ions from intracellular reservoirs, while DAG activates different isoforms of the protein kinase C. Activation of phospholipase C is thus an important step in cell activation. It was examined whether betagamma subunits which contain Gβ3s-2 can activate the phospholipase Cβ3 (PLCbeta3). To do this the COS-7 cell system was used which is often used in the generally accessible literature for transient transfection of proteins. These cells were transfected with the PLCβ3, Ggamma12 and different Gβ subunits. The cells were pretreated with radioactively tagged [3H] inositol. The formation of inositol phosphates (IP) was quantified using standard methods, the amount of the 1P formed constituting a measure of the activation of the PLC. As is shown in FIG. 16, betagamma dimers which contain Gβ3, Gβ3s, or Gβ3s-2 can activate PLCβ33. Likewise, activation of PLCβ3 after transfection of Gβ1 is shown for comparison.
# G protein alpha-subunits = experiment: [35S]GTPgammaS incorporation after Mas-7 stimulation, COS-7 transfection system; type: cell-based, human; conditions: COS-7 cells, FIG. 1
# Source text: The subject matter of this invention is based on the finding that the Gβ3s subunit leads to increased activation capacity of G proteins. The increased activation capacity of G proteins was detected via transfection of the corresponding cDNAs and the expression of Gβ3 and Gβ3s in the COS-7 transfection system which is well known to one skilled in the art. […] To quantify the activation capacity of G proteins, here the incorporation of radioactively tagged [35S]GTPgammaS into G protein alpha-subunits after stimulation with the peptide mastoparan-7 (Mas-7) was measured.
# G protein alpha subunits = experiment: 35S-GTPgammaS binding to permeabilized Sf9 cells (Galphai2, Ggamma12, m2 receptor) after carbachol; type: cell-based, human; conditions: carbachol 100 microM, versus no beta subunit, FIG. 15
# Source text: First of all, it was studied whether G protein heterotrimers which contain Gβ3s-2 are functionally active. As described earlier, the Sf9 insect cell system was used for this purpose (Siffert, W., Rosskopf, D., Siffert, G., Busch, S., Moritz, A., Erbel, R., Sharma, A. M., Ritz, E.; Wichmann, H. E., Jakobs, K. H., and Horsthemke, B. Association of a human G protein β3 subunit variant with hypertension. Nat. Genet. 18(1): 45-48, 1998). The cells were transfected with Galphai2, Ggamma12 and the m2-muscarinergic acetylcholine receptor. The bonding of 35S-GTPgammaS to permeabilized cells was quantified after stimulation with carbachol (100 microM). Here the specific incorporation of 35S-GTPgammaS is a measure of the activation of G protein alpha subunits. […] Thus it is shown at the same time that Gβ3s-2 in spite of the deletion of one propeller blade is functionally active and even leads to intensified activation of G proteins. […] Galphai2, Galphai3, G-1, and G-2 are not mutated. Circ. Res. 79:974-983, 1996. Siffert, W., Rosskopf, D., Moritz, A., Wieland, T., Kaldenberg-Stasch, S., Kettler, N., Hartung, K., Bechmann, S., and Jakobs, K. H. Enhanced G protein activation in immortalized lymphoblasts from patients with essential hypertension. J. Clin. Invest. 96:759-766, 1995. Wirchow, S., Ansorge, N., Ruebben, H., Wiffert, G., and Siffert, W. Enhanced fMLP-stimulated chemotaxis in human neutrophils from individuals carrying out the G protein beta3 subunit 825T-allele. FEBS Lett. 436(2): 155-158, 1998).
molecule,measurement,setting,value
CC(C)NCC(O)COc1cccc2ccccc12 (stereo not shown) [propanolol],decrease of cardiac output,[1]; homozygotic C825 carriers,3 mL
same,decrease of cardiac output,[1]; homozygotic and heterozygotic 828T (so in the source) allele carriers,12 mL
CCCCC[C@H](O)/C=C/[C@H]1[C@H](O)CC(=O)[C@@H]1CCCCCCC(=O)O [prostaglandin E1],males with insufficient or absent erection,[2]; genotype CC,34
same,males with sufficient erection (scores 4 and 5),[2]; genotype CC,16
same,males with insufficient or absent erection,[2]; genotype TC,16
same,males with sufficient erection (scores 4 and 5),[2]; genotype TC,15
same,males with insufficient or absent erection,[2]; genotype TT,3
same,males with sufficient erection (scores 4 and 5),[2]; genotype TT,3
same,increase of the arterial blood flow (doppler sonography),"[2]; after injection, homozygotic C825 allele carriers",reduced increase of the arterial blood flow
fMLP,chemotaxis,[3],increased chemotaxis
C[N+](C)(C)CCOC(N)=O [carbachol],potency and efficiency of the agonist for stimulation of G proteins,[4],increased potency and increased efficiency
CCN1CCc2nc(N)oc2CC1 [BHT 933],reduction of coronary blood flow,coronary vessels,intensified reduction of coronary blood flow
"Gβ3s: alternative splice product of human GNB3 with loss of 41 amino acids (protein, listed as Homo sapiens) MGEMEQLRQEAEQLKKQIADARKACADVTLAELVSGLEVVGRVQMRTRRTLRGHLAKIYAMHWATDSKLLVSASQDGKLIVWDSYTTNKVHAIPLRSSWVMTCAYAPSGNFVACGGLDNMCSIYNLKSREGNVKVSRELSAHTGYLSCCRFLDDNNIVTSSGDTTCALWDIETGQQKTVFVGHTGDCMSLAVSPDFNLFISGACDASAKLWDVREGTCRQTFTGQESDINAICFFSLSGRLLFAGYDDFNCNVWDSMKSERVGILSGHDNRVSCLGVTADGMAVATGSWDSFLKIWN",activation of PLCβ3 (inositol phosphate formation),[5],can activate
same,activation capacity of G proteins ([35S]GTPgammaS incorporation),G protein alpha-subunits,clearly increased compared to Gβ3
same,G protein activation (specific 35S-GTPgammaS incorporation),G protein alpha subunits,more potent than Gβ3
"Gβ3s-2: new splice variant of the Gβ3 subunit of human G protein, deletion of 43 amino acids, SEQ ID NO:4 (protein, listed as Homo sapiens) MGEMEQLRQEAEQLKKQIADARKACADVTLAELVSGLEVVGRVQMRTRRTLRGHLAKIYAMHWATDSKLLVSASQDGKLIVWDSYTTNKVHAIPLRSSWVMTCAYAPSGNFVACGGLDNMCSIYNLKSREGNVKVSRELSAHTGYLSCCRFLDDNNIVTSSGDTTCALWDIETGQQKTVFVGHTGDCMSLAVSPDFNLFISGACDASAKLWDVREGTCRQTFTGQESDINAICFFSLSGRLLFAGYDDFNCNVWDSMKSERVGILSGHDNRVSCLGVTADGMAVATGSWDSFLKIWN",activation of PLCβ3 (inositol phosphate formation),[5],can activate
same,G protein activation (specific 35S-GTPgammaS incorporation),G protein alpha subunits,strongest potentiation
"Gβ3: Gβ3-subunit of the human G protein (protein, UniProt P16520 1-340, looked up) Guanine nucleotide-binding …: MGEMEQLRQEAEQLKKQIADARKACADVTLAELVSGLEVVGRVQMRTRRTLRGHLAKIYAMHWATDSKLLVSASQDGKLIVWDSYTTNKVHAIPLRSSWVMTCAYAPSGNFVACGGLDNMCSIYNLKSREGNVKVSRELSAHTGYLSCCRFLDDNNIVTSSGDTTCALWDIETGQQKTVFVGHTGDCMSLAVSPDFNLFISGACDASAKLWDVREGTCRQTFTGHESDINAICFFPNGEAICTGSDDASCRLFDLRADQELICFSHESIICGITSVAFSLSGRLLFAGYDDFNCNVWDSMKSERVGILSGHDNRVSCLGVTADGMAVATGSWDSFLKIWN",activation of PLCβ3 (inositol phosphate formation),[5],can activate
same,G protein activation (specific 35S-GTPgammaS incorporation),G protein alpha subunits,clearly intensified
